This note sets out measurements from patent US20030096782A1, “Expression profiling in the intact human heart” (The Regents of the University of Colorado, priority 2001, published 2003).

The test system of the assay is subjects with idiopathic dilated cardiomyopathy (IDC). Nature of the assay: Serial study of subjects with idiopathic dilated cardiomyopathy treated with β-blocking agents or placebo (LVEF / phenotype). Type of assay: in vivo, human. The following applies: for phenotype: baseline versus after 6 months of treatment; for left ventricular ejection fraction (LVEF): subjects with baseline IDC, 6-7 month period, change versus baseline. The procedure:
Dynamic expression profiling was performed in the intact human heart in 8 subjects with idiopathic dilated cardiomyopathy (IDC), on RNA extracted from RV septal endomyocardial biopsies performed at baseline and after 6 months treatment with β-blocking agents (n=6) or placebo (n=2). Affmetrix™ U95a GeneChips, which contain 12,625 gene sequences/chip, were used for expression profiling.
Endomyocardial biopsies were obtained during a 6-7 month period from eight subjects with baseline idiopathic dilated cardiomyopathy (IDC). Of these subjects, six were treated with the β-blocking agents carvedilol and metoprolol, and two were treated with placebo.
Biopsied samples obtained from these subjects were analyzed by quantitative reverse transcript polymerase chain reaction (QRT PCR), and the mRNAs obtained were further analyzed by Affymetrix Gene chip. Subjects with ideal substantial noise ratios were categorized in the low scaling factor group and those with substantial noise, which compromised quantitation, categorized in the high scaling factor group. Gene expression patterns were further compared between the seven subjects showing improved phenotypes and the one subject showing worsening phenotype. Of the four subjects in the low scaling group showing an improved LVEF, one had received placebo, one carvedilol, and one metoprolol, with the fourth subject treated with placebo showing a decrease LVEF. Of the four subjects in the high scaling group three received carvedilol and one received metoprolol.
Serial measurements of myocardial gene expression were performed on 4 subjects with […], at baseline and after 6 months of treatment with β-blocking agents (n=2, 1 carvediol and 1 metroprolol) or placebo (n=2). RNA was extracted from endomyocardial biopsy material, and expression profiling was performed via Affymetrix U95a GeneChips. […] In the three subjects who improved, a between-subject anaylsis was performed at baseline, and compared to a within-subject comparison between baseline and end of study.

For `COCCc1ccc(OCC(O)CNC(C)C)cc1` (stereo not shown) [metoprolol], the phenotype entry was “improvement in phenotype” and the “left ventricular ejection fraction (LVEF)” value was “improved”.
Turning to `COc1ccccc1OCCNCC(O)COc1cccc2[nH]c3ccccc3c12` (stereo not shown) [carvedilol], the phenotype result is reported as “improvement in phenotype” and the “left ventricular ejection fraction (LVEF)” value is on record as “improved”.
